Assay results: publication PMC9571063 (Molecules, 2022)
Read-outs that look alike come from different tables or passages of the source.

Assays:
FGFR4 = target: T1, FGFR4 (Homo sapiens, UniProt P22455); test: KINOMEscan; format: binding; details: read-out: Percent Control
T1 construct: purchased Eurofins DiscoverX KINOMEscan (scanMAX 468)

PFPK5(P.falciparum) = target: T2, PFPK5(P.falciparum) (Plasmodium falciparum, UniProt P61075); test: KINOMEscan; format: binding; details: read-out: Percent Control
T2 construct: purchased Eurofins DiscoverX KINOMEscan (scanMAX 468)

[1] = target: T3, ABL1(F317I)-phosphorylated (Homo sapiens, UniProt P00519, F317I); test: KINOMEscan; format: binding; details: read-out: Percent Control
T3 construct: purchased Eurofins DiscoverX KINOMEscan (scanMAX 468)

RIOK3 = target: T4, RIOK3 (Homo sapiens, UniProt O14730); test: KINOMEscan; format: binding; details: read-out: Percent Control
T4 construct: purchased Eurofins DiscoverX KINOMEscan (scanMAX 468)

TLK2 = target: T5, TLK2 (Homo sapiens, UniProt Q86UE8); test: KINOMEscan; format: binding; details: read-out: Percent Control
T5 construct: purchased Eurofins DiscoverX KINOMEscan (scanMAX 468)

PIK3CA(C420R) = target: T6, PIK3CA(C420R) (Homo sapiens, UniProt P42336, C420R); test: KINOMEscan; format: binding; details: read-out: Percent Control
T6 construct: purchased Eurofins DiscoverX KINOMEscan (scanMAX 468)

VRK2 = target: T7, VRK2 (Homo sapiens, UniProt Q86Y07); test: KINOMEscan; format: binding; details: read-out: Percent Control
T7 construct: purchased Eurofins DiscoverX KINOMEscan (scanMAX 468)

HPK1 = target: T8, HPK1 (Homo sapiens, UniProt Q92918); test: KINOMEscan; format: binding; details: read-out: Percent Control
T8 construct: purchased Eurofins DiscoverX KINOMEscan (scanMAX 468)

NEK4 = target: T9, NEK4 (Homo sapiens, UniProt P51957); test: KINOMEscan; format: binding; details: read-out: Percent Control
T9 construct: purchased Eurofins DiscoverX KINOMEscan (scanMAX 468)

LYN = target: T10, LYN (Homo sapiens, UniProt P07948); test: KINOMEscan; format: binding; details: read-out: Percent Control
T10 construct: purchased Eurofins DiscoverX KINOMEscan (scanMAX 468)

PAK6 = target: T11, PAK6 (Homo sapiens, UniProt Q9NQU5); test: KINOMEscan; format: binding; details: read-out: Percent Control
T11 construct: purchased Eurofins DiscoverX KINOMEscan (scanMAX 468)

WNK3 = target: T12, WNK3 (Homo sapiens, UniProt Q9BYP7); test: KINOMEscan; format: binding; details: read-out: Percent Control
T12 construct: purchased Eurofins DiscoverX KINOMEscan (scanMAX 468)

DMPK2 = target: T13, DMPK2 (Homo sapiens, UniProt Q6DT37); test: KINOMEscan; format: binding; details: read-out: Percent Control
T13 construct: purchased Eurofins DiscoverX KINOMEscan (scanMAX 468)

MAP3K3 = target: T14, MAP3K3 (Homo sapiens, UniProt Q99759); test: KINOMEscan; format: binding; details: read-out: Percent Control
T14 construct: purchased Eurofins DiscoverX KINOMEscan (scanMAX 468)

MST1R = target: T15, MST1R (Homo sapiens, UniProt Q04912); test: KINOMEscan; format: binding; details: read-out: Percent Control
T15 construct: purchased Eurofins DiscoverX KINOMEscan (scanMAX 468)

LZK = target: T16, LZK (Homo sapiens, UniProt O43283); test: KINOMEscan; format: binding; details: read-out: Percent Control
T16 construct: purchased Eurofins DiscoverX KINOMEscan (scanMAX 468)

MLK3 = target: T17, MLK3 (Homo sapiens, UniProt Q16584); test: KINOMEscan; format: binding; details: read-out: Percent Control
T17 construct: purchased Eurofins DiscoverX KINOMEscan (scanMAX 468)

EGFR(G719S) = target: T18, EGFR(G719S) (Homo sapiens, UniProt P00533, G719S); test: KINOMEscan; format: binding; details: read-out: Percent Control
T18 construct: purchased Eurofins DiscoverX KINOMEscan (scanMAX 468)

DLK = target: T19, DLK (Homo sapiens, UniProt Q12852); test: KINOMEscan; format: binding; details: read-out: Percent Control
T19 construct: purchased Eurofins DiscoverX KINOMEscan (scanMAX 468)

PRKX = target: T20, PRKX (Homo sapiens, UniProt P51817); test: KINOMEscan; format: binding; details: read-out: Percent Control
T20 construct: purchased Eurofins DiscoverX KINOMEscan (scanMAX 468)

DDR1 = target: T21, DDR1 (Homo sapiens, UniProt Q08345); test: KINOMEscan; format: binding; details: read-out: Percent Control
T21 construct: purchased Eurofins DiscoverX KINOMEscan (scanMAX 468)

[2] = target: T22, JAK1(JH2domain-pseudokinase) (Homo sapiens, UniProt P23458); test: KINOMEscan; format: binding; details: read-out: Percent Control
T22 construct: JAK1(JH2domain-pseudokinase); purchased Eurofins DiscoverX KINOMEscan (scanMAX 468)

[3] = target: T23, ABL1(Y253F)-phosphorylated (Homo sapiens, UniProt P00519, Y253F); test: KINOMEscan; format: binding; details: read-out: Percent Control
T23 construct: purchased Eurofins DiscoverX KINOMEscan (scanMAX 468)

Hs_PIM1 = target: T24, Hs_PIM1 (Homo sapiens, UniProt P11309); set-up: method as in ref 13 (a number printed in a supplementary file, which may have a reference list of its own: not looked up in the article's list); details: DB18, cited from earlier work
T24 construct: host or cells: Sf9 insect cells (baculovirus)

INSRR = target: T25, INSRR (Homo sapiens, UniProt P14616); test: KINOMEscan; format: binding; details: read-out: Percent Control
T25 construct: purchased Eurofins DiscoverX KINOMEscan (scanMAX 468)

ERK2 = target: T26, ERK2 (Homo sapiens, UniProt P28482); test: KINOMEscan; format: binding; details: read-out: Percent Control
T26 construct: purchased Eurofins DiscoverX KINOMEscan (scanMAX 468)

KIT(V559D,V654A) = target: T27, KIT(V559D,V654A) (Homo sapiens, UniProt P10721, V559D/V654A); test: KINOMEscan; format: binding; details: read-out: Percent Control
T27 construct: purchased Eurofins DiscoverX KINOMEscan (scanMAX 468)

CDK7 = target: T28, CDK7 (Homo sapiens, UniProt P50613); test: KINOMEscan; format: binding; details: read-out: Percent Control
T28 construct: purchased Eurofins DiscoverX KINOMEscan (scanMAX 468)

STK33 = target: T29, STK33 (Homo sapiens, UniProt Q9BYT3); test: KINOMEscan; format: binding; details: read-out: Percent Control
T29 construct: purchased Eurofins DiscoverX KINOMEscan (scanMAX 468)

SRPK1 = target: T30, SRPK1 (Homo sapiens, UniProt Q96SB4); test: KINOMEscan; format: binding; details: read-out: Percent Control
T30 construct: purchased Eurofins DiscoverX KINOMEscan (scanMAX 468)

[4] = target: T31, JAK2(JH1domain-catalytic) (Homo sapiens, UniProt O60674); test: KINOMEscan; format: binding; details: read-out: Percent Control
T31 construct: JAK2(JH1domain-catalytic); purchased Eurofins DiscoverX KINOMEscan (scanMAX 468)

SBK1 = target: T32, SBK1 (Homo sapiens, UniProt Q52WX2); test: KINOMEscan; format: binding; details: read-out: Percent Control
T32 construct: purchased Eurofins DiscoverX KINOMEscan (scanMAX 468)

PIK3C2B = target: T33, PIK3C2B (Homo sapiens, UniProt O00750); test: KINOMEscan; format: binding; details: read-out: Percent Control
T33 construct: purchased Eurofins DiscoverX KINOMEscan (scanMAX 468)

RET(V804M) = target: T34, RET(V804M) (Homo sapiens, UniProt P07949, V804M); test: KINOMEscan; format: binding; details: read-out: Percent Control
T34 construct: purchased Eurofins DiscoverX KINOMEscan (scanMAX 468)

MUSK = target: T35, MUSK (Homo sapiens, UniProt O15146); test: KINOMEscan; format: binding; details: read-out: Percent Control
T35 construct: purchased Eurofins DiscoverX KINOMEscan (scanMAX 468)

STK35 = target: T36, STK35 (Homo sapiens, UniProt Q8TDR2); test: KINOMEscan; format: binding; details: read-out: Percent Control
T36 construct: purchased Eurofins DiscoverX KINOMEscan (scanMAX 468)

EPHA6 = target: T37, EPHA6 (Homo sapiens, UniProt Q9UF33); test: KINOMEscan; format: binding; details: read-out: Percent Control
T37 construct: purchased Eurofins DiscoverX KINOMEscan (scanMAX 468)

GRK2 = target: T38, GRK2 (Homo sapiens, UniProt P25098); test: KINOMEscan; format: binding; details: read-out: Percent Control
T38 construct: purchased Eurofins DiscoverX KINOMEscan (scanMAX 468)

SIK2 = target: T39, SIK2 (Homo sapiens, UniProt Q9H0K1); test: KINOMEscan; format: binding; details: read-out: Percent Control
T39 construct: purchased Eurofins DiscoverX KINOMEscan (scanMAX 468)

ALK(L1196M) = target: T40, ALK(L1196M) (Homo sapiens, UniProt Q9UM73, L1196M); test: KINOMEscan; format: binding; details: read-out: Percent Control
T40 construct: purchased Eurofins DiscoverX KINOMEscan (scanMAX 468)

RAF1 = target: T41, RAF1 (Homo sapiens, UniProt P04049); test: KINOMEscan; format: binding; details: read-out: Percent Control
T41 construct: purchased Eurofins DiscoverX KINOMEscan (scanMAX 468)

T24 sequence (P11309 whole entry): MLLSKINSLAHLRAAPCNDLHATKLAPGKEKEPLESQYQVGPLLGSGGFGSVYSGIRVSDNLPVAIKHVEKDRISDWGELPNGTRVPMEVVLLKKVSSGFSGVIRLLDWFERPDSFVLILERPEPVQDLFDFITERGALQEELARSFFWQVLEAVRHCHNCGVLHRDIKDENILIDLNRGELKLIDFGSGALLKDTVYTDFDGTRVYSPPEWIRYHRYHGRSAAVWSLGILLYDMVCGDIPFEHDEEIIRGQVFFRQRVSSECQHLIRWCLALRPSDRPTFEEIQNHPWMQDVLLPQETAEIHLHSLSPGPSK
T19 sequence (Q12852 whole entry): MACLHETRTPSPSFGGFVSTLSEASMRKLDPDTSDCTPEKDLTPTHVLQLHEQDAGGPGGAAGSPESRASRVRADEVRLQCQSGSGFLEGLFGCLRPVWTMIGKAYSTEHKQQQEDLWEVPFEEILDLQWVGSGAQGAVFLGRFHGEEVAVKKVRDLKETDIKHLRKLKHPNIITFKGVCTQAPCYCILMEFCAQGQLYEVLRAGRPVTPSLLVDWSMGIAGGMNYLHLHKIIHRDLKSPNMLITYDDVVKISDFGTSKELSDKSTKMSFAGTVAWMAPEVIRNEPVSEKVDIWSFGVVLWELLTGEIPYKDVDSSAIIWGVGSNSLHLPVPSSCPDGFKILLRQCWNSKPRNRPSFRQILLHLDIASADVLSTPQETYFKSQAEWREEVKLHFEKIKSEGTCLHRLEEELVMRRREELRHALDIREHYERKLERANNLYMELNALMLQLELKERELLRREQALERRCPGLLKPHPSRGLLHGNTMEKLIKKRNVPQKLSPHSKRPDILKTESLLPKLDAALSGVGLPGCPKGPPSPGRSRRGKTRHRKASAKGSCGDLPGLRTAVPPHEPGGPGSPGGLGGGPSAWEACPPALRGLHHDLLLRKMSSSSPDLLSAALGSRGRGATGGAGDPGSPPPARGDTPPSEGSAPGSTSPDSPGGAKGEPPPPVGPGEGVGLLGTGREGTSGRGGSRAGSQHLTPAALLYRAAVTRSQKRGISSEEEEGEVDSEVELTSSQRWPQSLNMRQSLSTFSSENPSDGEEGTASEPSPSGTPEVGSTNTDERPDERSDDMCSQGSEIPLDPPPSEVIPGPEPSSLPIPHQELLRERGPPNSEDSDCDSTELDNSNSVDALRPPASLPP
T33 sequence (O00750 whole entry): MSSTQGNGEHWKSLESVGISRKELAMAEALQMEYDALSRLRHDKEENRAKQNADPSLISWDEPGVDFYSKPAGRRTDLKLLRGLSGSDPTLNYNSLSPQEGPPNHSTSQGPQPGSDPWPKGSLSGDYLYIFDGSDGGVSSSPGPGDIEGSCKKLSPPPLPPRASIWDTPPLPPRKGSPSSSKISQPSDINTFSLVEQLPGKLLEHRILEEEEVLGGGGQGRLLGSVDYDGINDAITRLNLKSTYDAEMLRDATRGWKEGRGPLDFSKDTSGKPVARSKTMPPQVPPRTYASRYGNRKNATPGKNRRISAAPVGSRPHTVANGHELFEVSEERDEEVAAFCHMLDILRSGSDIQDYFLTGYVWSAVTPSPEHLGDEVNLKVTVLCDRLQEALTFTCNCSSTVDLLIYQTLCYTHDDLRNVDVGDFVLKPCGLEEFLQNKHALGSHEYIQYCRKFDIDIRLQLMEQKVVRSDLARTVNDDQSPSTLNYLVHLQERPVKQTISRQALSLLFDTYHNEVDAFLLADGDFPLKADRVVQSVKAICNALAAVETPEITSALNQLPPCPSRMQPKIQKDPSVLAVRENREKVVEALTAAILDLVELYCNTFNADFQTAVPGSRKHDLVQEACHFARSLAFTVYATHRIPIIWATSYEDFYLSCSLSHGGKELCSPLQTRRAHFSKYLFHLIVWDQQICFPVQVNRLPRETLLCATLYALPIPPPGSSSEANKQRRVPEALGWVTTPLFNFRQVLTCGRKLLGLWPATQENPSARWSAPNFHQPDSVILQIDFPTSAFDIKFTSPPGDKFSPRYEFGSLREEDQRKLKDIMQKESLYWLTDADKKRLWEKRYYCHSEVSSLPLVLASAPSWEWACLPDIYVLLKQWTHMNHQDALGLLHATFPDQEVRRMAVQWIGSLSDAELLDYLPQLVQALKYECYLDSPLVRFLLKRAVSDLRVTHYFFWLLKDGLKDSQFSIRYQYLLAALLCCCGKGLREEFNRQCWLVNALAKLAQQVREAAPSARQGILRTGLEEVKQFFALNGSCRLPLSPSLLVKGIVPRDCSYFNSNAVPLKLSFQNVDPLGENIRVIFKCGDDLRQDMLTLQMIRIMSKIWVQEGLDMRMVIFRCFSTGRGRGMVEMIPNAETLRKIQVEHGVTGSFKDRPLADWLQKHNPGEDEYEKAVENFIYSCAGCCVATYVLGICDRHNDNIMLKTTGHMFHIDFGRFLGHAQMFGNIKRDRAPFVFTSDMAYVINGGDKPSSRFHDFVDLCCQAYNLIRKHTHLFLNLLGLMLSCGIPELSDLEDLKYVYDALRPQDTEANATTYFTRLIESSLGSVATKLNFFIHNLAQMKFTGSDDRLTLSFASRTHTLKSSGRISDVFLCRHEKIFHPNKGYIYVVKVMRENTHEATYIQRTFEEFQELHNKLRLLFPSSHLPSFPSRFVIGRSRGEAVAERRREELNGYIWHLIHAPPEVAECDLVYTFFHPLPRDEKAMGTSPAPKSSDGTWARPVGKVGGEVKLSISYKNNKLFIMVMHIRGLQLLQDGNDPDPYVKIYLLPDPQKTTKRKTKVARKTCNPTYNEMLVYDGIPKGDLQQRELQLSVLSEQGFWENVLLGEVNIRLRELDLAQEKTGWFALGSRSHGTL
T20 sequence (P51817 whole entry): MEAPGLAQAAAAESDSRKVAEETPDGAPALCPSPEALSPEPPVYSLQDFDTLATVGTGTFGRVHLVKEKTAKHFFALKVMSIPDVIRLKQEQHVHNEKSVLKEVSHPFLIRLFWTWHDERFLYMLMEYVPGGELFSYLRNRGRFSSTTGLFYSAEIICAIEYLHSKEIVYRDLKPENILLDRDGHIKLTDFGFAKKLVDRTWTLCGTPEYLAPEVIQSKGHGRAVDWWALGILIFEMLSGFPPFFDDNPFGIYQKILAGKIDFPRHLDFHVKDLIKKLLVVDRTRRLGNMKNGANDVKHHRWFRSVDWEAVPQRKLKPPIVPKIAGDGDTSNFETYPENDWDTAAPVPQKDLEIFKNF
T28 sequence (P50613 whole entry): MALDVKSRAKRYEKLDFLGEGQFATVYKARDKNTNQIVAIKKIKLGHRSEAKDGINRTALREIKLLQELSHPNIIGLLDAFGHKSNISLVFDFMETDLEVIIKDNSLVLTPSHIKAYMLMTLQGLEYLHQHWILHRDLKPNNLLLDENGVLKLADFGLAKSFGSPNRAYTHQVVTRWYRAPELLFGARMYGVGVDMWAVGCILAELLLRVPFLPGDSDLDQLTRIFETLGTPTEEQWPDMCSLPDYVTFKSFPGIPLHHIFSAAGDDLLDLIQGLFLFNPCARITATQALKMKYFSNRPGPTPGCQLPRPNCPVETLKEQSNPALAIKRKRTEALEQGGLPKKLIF
T13 sequence (Q6DT37 whole entry): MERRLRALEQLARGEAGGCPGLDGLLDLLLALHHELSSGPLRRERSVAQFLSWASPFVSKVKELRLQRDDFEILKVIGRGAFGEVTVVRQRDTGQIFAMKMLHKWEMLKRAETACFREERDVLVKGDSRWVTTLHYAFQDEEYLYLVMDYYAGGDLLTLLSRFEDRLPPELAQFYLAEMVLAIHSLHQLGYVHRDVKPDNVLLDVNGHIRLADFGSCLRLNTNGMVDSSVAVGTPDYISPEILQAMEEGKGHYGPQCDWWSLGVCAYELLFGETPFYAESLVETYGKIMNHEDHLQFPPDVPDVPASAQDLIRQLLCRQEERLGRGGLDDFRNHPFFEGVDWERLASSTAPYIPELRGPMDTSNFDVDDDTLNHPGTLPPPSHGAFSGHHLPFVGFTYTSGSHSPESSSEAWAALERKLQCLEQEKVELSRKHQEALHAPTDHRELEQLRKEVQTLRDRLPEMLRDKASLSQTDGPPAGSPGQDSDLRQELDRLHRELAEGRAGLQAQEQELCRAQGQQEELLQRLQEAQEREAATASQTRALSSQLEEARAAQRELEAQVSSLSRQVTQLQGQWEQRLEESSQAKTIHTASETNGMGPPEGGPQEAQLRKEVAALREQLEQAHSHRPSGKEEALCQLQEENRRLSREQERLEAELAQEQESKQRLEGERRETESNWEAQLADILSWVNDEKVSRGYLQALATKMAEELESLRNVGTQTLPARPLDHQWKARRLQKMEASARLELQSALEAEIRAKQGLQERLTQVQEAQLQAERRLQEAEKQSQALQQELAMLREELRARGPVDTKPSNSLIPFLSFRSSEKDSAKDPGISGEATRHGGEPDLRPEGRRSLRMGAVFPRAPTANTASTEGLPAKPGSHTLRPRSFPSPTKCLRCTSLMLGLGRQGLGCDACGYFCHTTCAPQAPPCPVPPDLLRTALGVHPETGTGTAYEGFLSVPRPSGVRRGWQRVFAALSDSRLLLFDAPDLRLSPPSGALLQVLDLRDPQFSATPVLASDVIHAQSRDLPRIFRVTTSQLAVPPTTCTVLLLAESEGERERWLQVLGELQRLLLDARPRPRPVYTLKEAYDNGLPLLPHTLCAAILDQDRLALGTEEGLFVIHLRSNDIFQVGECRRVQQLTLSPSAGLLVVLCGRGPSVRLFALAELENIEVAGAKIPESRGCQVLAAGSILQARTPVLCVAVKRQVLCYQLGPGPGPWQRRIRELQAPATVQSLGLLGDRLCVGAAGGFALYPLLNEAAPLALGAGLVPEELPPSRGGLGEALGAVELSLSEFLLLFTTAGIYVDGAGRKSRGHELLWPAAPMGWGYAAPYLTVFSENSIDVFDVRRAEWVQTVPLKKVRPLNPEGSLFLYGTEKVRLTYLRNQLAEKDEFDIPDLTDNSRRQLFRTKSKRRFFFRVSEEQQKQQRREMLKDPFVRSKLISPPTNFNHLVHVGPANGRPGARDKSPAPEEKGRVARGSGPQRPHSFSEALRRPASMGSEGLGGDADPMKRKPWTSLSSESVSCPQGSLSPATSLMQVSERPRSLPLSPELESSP

Cc1ccc(-n2cc(COc3cccc4cnc(Nc5cccc(Cl)c5)nc34)nn2)c([N+](=O)[O-])c1 [DB18]
93%: remaining binding at 1 µM (LYN)
99%: remaining binding at 1 µM (NEK4) | remaining binding at 1 µM (MAP3K3)
81%: % of residual activity Hs_PIM1 (Hs_PIM1; 10 µM)
97%: remaining binding at 1 µM (PRKX) | remaining binding at 1 µM [3] | % of residual activity Hs_PIM1 (Hs_PIM1; 1 µM)
96%: remaining binding at 1 µM (RET(V804M))
98%: remaining binding at 1 µM (ALK(L1196M))
100%: remaining binding at 1 µM (FGFR4) | remaining binding at 1 µM (PFPK5(P.falciparum)) | remaining binding at 1 µM [1] | remaining binding at 1 µM (RIOK3) | remaining binding at 1 µM (TLK2) | remaining binding at 1 µM (PIK3CA(C420R)) | remaining binding at 1 µM (VRK2) | remaining binding at 1 µM (HPK1) | remaining binding at 1 µM (PAK6) | remaining binding at 1 µM (WNK3) | remaining binding at 1 µM (DMPK2) | remaining binding at 1 µM (MST1R) | remaining binding at 1 µM (LZK) | remaining binding at 1 µM (MLK3) | remaining binding at 1 µM (EGFR(G719S)) | remaining binding at 1 µM (DLK) | remaining binding at 1 µM (DDR1) | remaining binding at 1 µM [2] | remaining binding at 1 µM (INSRR) | remaining binding at 1 µM (ERK2) | remaining binding at 1 µM (KIT(V559D,V654A)) | remaining binding at 1 µM (CDK7) | remaining binding at 1 µM (STK33) | remaining binding at 1 µM (SRPK1) | remaining binding at 1 µM [4] | remaining binding at 1 µM (SBK1) | remaining binding at 1 µM (PIK3C2B) | remaining binding at 1 µM (MUSK) | remaining binding at 1 µM (STK35) | remaining binding at 1 µM (EPHA6) | remaining binding at 1 µM (SIK2) | remaining binding at 1 µM (RAF1)
94%: remaining binding at 1 µM (GRK2)
